In patent US10538516B2, “Oxadiazole derivative and pharmaceutical containing same” (National Center for Geriatrics and Gerontology, priority 2015, dated 2020):
Like-named read-outs stand apart in the source and are kept apart here.

How the values were obtained:
[1] = molecular target: T1, GAβ-dependent amyloid fibril formation (Human Aβ1-40 + GM1-containing liposome) (Homo sapiens, UniProt P05067); test: Thioflavin T (ThT) assay of GAβ-dependent amyloid fibril formation (Aβ1-40 with GM1-containing liposome); assay type: biochemical
T1 construct: Human Aβ1-40 (cat. #4307-v, prepared by Peptide Institute); purchased Peptide Institute 4307-v
T1 sequence (P05067 672-711 limits assumed): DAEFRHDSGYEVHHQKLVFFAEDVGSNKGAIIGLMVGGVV
Outline: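 Human Aβ1-40 (75 μM stock) pre-incubated 10 min at room temperature with compound (75 or 15 μM solution), then GM1-containing cholesterol/sphingomyelin liposome added and incubated 37° C, 18 hours. Fibrils quantified by ThT fluorescence (ex 430/em 490 nm, pH 8.5 glycine buffer); inhibition as ratio to compound-free control.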

[2] = inhibition rate against amyloid fibril formation, final concentration of the compound 25 μM, read-out: Inhibitory activity ABC evaluation
[3] = @25 μM, read-out: ThT Inhibitory activity (% inhibition)

SMILES	inhibition at 25 µM [1, 2]	also measured
COc1ccc(-c2noc(CCC(=O)Nc3cc(Cl)ccn3)n2)cc1 [Compound 4, N-(4-chloropyridin-2-yl)-3-{3-(4-methoxyphenyl)-1,2,4-oxadiazol-5-yl}propanamide]	< 40%	melting point: 167 °C
COc1ccc(-c2noc(CCC(=O)N(CCCO)c3cccc(Cl)c3)n2)cc1 [Compound 6, N-(3-chlorophenyl)-N-(3-hydroxypropyl)-3-{3-(4-methoxyphenyl)-1,2,4-oxadiazol-5-yl}propanamide]	40 to 80%	melting point: 80 °C
CCCN(C(=O)Cc1nc(-c2ccc(OC)cc2)no1)c1cccc(Cl)c1 [Compound 1, N-(3-chlorophenyl)-2-{3-(4-methoxyphenyl)-1,2,4-oxadiazol-5-yl}-N-propylacetamide]	< 40%	melting point: 108 °C
CCCN(C(=O)CCc1nc(-c2ccc(OC)cc2)no1)c1cccc(Cl)c1 [Compound 2, N-(3-chlorophenyl)-3-{3-(4-methoxyphenyl)-1,2,4-oxadiazol-5-yl}-N-propylpropanamide]	40 to 80%	melting point: 85 °C
COc1ccc(-c2noc(CCC(=O)N(CCO)c3cccc(Cl)c3)n2)cc1 [Compound 3, N-(3-chlorophenyl)-N-(2-hydroxyethyl)-3-{3-(4-methoxyphenyl)-1,2,4-oxadiazol-5-yl}propanamide]	< 40%	melting point: 95 °C
O=C(Nc1nc(-c2ccc(C(F)(F)F)cc2)no1)c1ccccc1 [Compound 174, N-{3-[4-(trifluoromethyl)phenyl]-1,2,4-oxadiazol-5-yl} benzamide]	< 40%	
O=C(N[C@@H](CO)c1nc(-c2c[nH]c3ncccc23)no1)c1ccc(F)cc1 [Compound 229, 4-fluoro-N-[(1S)-2-hydroxy-1-(3-{1H-pyrrolo[2,3-b]pyridin-3-yl}-1,2,4-oxadiazol-5-yl)ethyl]benzamide]	40 to 80%	inhibition at 25 µM [1, 3]: 71%
O=C(NC1(c2nc(-c3ccc(OC(F)(F)F)cc3)no2)CCCC1)c1cccc(Cl)c1 [Compound 35, 3-chloro-N-(1-[3-{4-(trifluoromethoxy)phenyl}-1,2,4-oxadiazol-5-yl]cyclopentyl) benzamide]	< 40%	
O=C(c1ccc(Cl)cc1)N1CC(O)CC1c1nc(-c2ccc(OC(F)(F)F)cc2)no1 (stereo in doubt) [Compound 85, (4-chlorophenyl) ((2S,4S)-4-hydroxy-2-[3-{4-(trifluoromethoxy)phenyl}-1,2,4-oxadiazol-5-yl]pyrrolidin-1-yl)methanone]	40 to 80%	
Nc1n[nH]cc1-c1noc([C@H](CO)NC(=O)c2ccc(F)cc2)n1 [Compound 257, N-[(1S)-1-[3-(3-amino-1H-pyrazol-4-yl)-1,2,4-oxadiazol-5-yl]-2-hydroxyethyl]-4-fluorobenzamide]	40 to 80%	
COc1ccc(CN2CC(c3nc(-c4ccc(OC(F)(F)F)cc4)no3)CC2=O)cc1 (centres unmarked) [Compound 50, 1-(4-methoxybenzyl)-4-[3-{4-(trifluoro-methoxy)phenyl}-1,2,4-oxadiazol-5-yl] pyrrolidin-2-one]	40 to 80%	
Cl.O=C(N[C@@H](CO)c1nc(-c2ccc(C(F)(F)F)cn2)no1)c1ccc(F)cc1 [Compound 206, 4-fluoro-N-[(1S)-2-hydroxy-1-{3-[5-(trifluoromethyl)pyridin-2-yl]-1,2,4-oxadiazol-5-yl}ethyl]benzamide hydrochloride]		inhibition at 25 µM [1, 3]: 55%; Inhibitory activity ABC evaluation ([1]; inhibition rate against amyloid fibril formation, final concentration of the compound 25 μM): B (40% or more and less than 80% were evaluated as B)
O=C1CC(c2nc(-c3ccc(OC(F)(F)F)cc3)no2)CN1c1cccc(Cl)c1 (centres unmarked) [Compound 27, 1-(3-chlorophenyl)-4-{3-[4-(trifluoromethoxy)phenyl]-1,2,4-oxadiazole-5-yl}pyrrolidin-2-one]	40 to 80%	
O=C(NC(CO)c1nc(-c2ccc(C(F)(F)F)cc2)no1)c1ccc2[nH]ccc2c1 (centres unmarked) [Compound 183, N-(2-hydroxy-1-{3-[4-(trifluoromethyl)phenyl]-1,2,4-oxadiazol-5-yl}ethyl)-1H-indole-5-carboxamide]	> 80%	
CN(C(=O)CCc1nc(-c2ccc(O)cc2)no1)c1cccc(Cl)c1 [Compound 13, N-(3-chloropbenyl)-3-{3-(4-hydroxyphenyl)-1,2,4-oxadiazol-5-yl}-N-methylpropanamide]	40 to 80%	
O=C1CC(c2nc(-c3ccc(Cl)cc3)no2)CN1c1ccc(Cl)cc1 (centres unmarked) [Compound 59, 1-(4-chlorophenyl)-4-{3-(4-chlorophenyl)-1,2,4-oxadiazol-5-yl}pyrrolidin-2-one]	< 40%	
O=C(N[C@@H](CO)c1nc(-c2ccc(Cl)o2)no1)c1ccc(F)cc1 [Compound 228, N-[(1S)-1-[3-(5-chlorofuran-2-yl)-1,2,4-oxadiazol-5-yl]-2-hydroxyethyl]-4-fluorobenzamide]	< 40%	
O=C(O)C[C@H](NC(=O)c1ccc(Cl)cc1)c1nc(-c2ccc(OC(F)(F)F)cc2)no1 [Compound 81, (S)-3-(4-chlorobenzamide)-3-{3-[4-(trifluoromethoxy)phenyl]-1,2,4-oxadiazol-5-yl}propanoic acid]	40 to 80%	
O=C(N[C@@H](CO)c1nc(-c2ccc(C(F)(F)F)cc2)no1)c1ccc(Cl)cn1 [Compound 239, 5-chloro-N-[(1S)-2-hydroxy-1-{3-[4-(trifluoromethyl)phenyl]-1,2,4-oxadiazol-5-yl}ethyl]pyridine-2-carboxamide]	40 to 80%	inhibition at 25 µM [1, 3]: 64%
O=C(CCc1nc(-c2ccc3c(c2)OCCO3)no1)N1CCc2ccccc2C1 [Compound 17, 3-{3-(2,3-dihydrobenzo[b][1,4]dioxin-6-yl)-1,2,4-oxadiazol-5-yl}-1-{3,4-dihydroisoquinolin-2(1H)-yl}propan-1-one]	40 to 80%	
O=C1CC(c2nnc(-c3ccc(OC(F)(F)F)cc3)[nH]2)CN1c1ccc(Cl)cc1 (centres unmarked) [Compound 123, 1-(4-chlorophenyl)-4-{5-[4-(trifluoromethoxy)phenyl]-4H-1,2,4-triazol-3-yl}pyrrolidin-2-one]	< 40%	
